This passage reports Relative migration rate results from patent publication US20250032387A1, “A PERSONAL CARE OR PHARMACEUTICAL COMPOSITION” (Conopco, Inc., d/b/a UNILEVER, priority 2021, published 2025).

The experiment deals with Human epidermal keratinocytes. Kind of experiment: in vitro scratch-wound assay (keratinocyte migration). As to conditions: primary human epidermal keratinocytes, 24 h pre-culture with active, 24 h further culture, wound area ratio divided by control (control = 1), active level wt % of medium. The format is cell-based. As to the method: The migration of epidermal keratinocytes is the basis for skin re-epithelialization during wound healing. The in vitro scratch-wound assay using monolayers of primary human epidermal keratinocytes is a straightforward and effective method to assess the migratory capacity. Human epidermal keratinocytes (lot.: Ep21012001, Biocell) were seeded into 6-well plates, at 4.5×10^5 cells per well and maintained in a 37° C. incubator in an atmosphere of 5% of carbon dioxide in EpiLife™ Keratinocyte Medium until the cells reaching 70 to 80% of confluence in the well. Then, the cells were cultured by fresh medium (as control) or fresh medium supplemented with different actives for 24 hours. The cells were scratched by a […] of pipette tip in an identical manner to simulate the formation of wound, and images for the cells were taken immediately to record the wound. The cells were cultured again by identical fresh medium or fresh medium supplemented with different actives at 37° C. for 24 hours and images for the cells were taken again. The ratio of area before and after the further culture were obtained by using the software Image-pro plus. The relative migration rates for difference actives were calculated by dividing the values of control and were summarized in Table 1.
In the case of `NC(=O)c1cccnc1` [B, Niacinamide], the Relative migration rate is 1.19.
For the compound Lysine carboxymethyl cysteinate, the Relative migration rate was determined as 1.15.
Take `NC(=O)c1cccnc1` [A, Niacinamide]: the Relative migration rate is recorded as 0.94.
`NC(=O)c1cccnc1` [C, Niacinamide]: the Relative migration rate is reported as 1.08.
For Lysine carboxymethyl cysteinate [D], the Relative migration rate is on record as 1.04.
